Results on 2 substances are retold here after patent publication US20060160086A1, “Method for continuous detection of an analyte, trifunctional detecting reagent used and detecting device” (Commissariat A L'Energie Atomique, priority 2002, published 2006).

The target in one series is T1, neutravidin (Gallus gallus, UniProt P02701).
T1 construct: purchased Pierce 31 000
Briefly: Attachment of the fluorescein-labeled tripod Y to neutravidin-coated microtitration plates (fluorescence). Format: binding. The note with it: neutravidin-coated microplate, 3 hours at ambient temperature, excitation 485 nm / emission 530 nm. Here is the method:
100 μl of a solution of neutravidin (sold under the reference 31 000 by the company Pierce) at 5 μg/ml in a 0.1 M potassium phosphate buffer, pH 7.4 are deposited into the wells of black microplates sold under the name High Bind Matrix by the company VWR (reference 80120696). After 16 hours at ambient temperature, the plates are washed with washing buffer and then saturated by depositing 300 μl/well of saturation buffer for 16 hours at ambient temperature. The plates are stored with the same buffer (300 μl/well) at 4° C.
A dilution range for the tripod Y (labeled with fluorescein) synthesized above in example 4, in 0.1 M potassium phosphate buffer, pH 7.4, is prepared by producing a first point of the range at a concentration of 0.5 μM, and then 4 successive ⅓ dilutions (i.e. 0.167 μM; 0.055 μM; 0.0185 μM and 6.2×10^−3 μM). […] The plate is read with an analyst AD system fluorimeter (LJL Biosystem) for reading microplates, at an excitation wavelength of 485 nm and at an emission wavelength of 530 nm, which are the excitation and emission wavelengths corresponding to fluorescein.
The curves obtained with neutravidin (black square) and without neutravidin (black triangle: control) are represented in the attached FIG. 2, in which the fluorescence (in arbitrary units) is expressed as a function of the concentration of tripod Y in accordance with the invention (μM).

Another series relates to monoclonal antibody SP31. The conditions noted are these: peptide analog of substance P comprising an alanine at position 10 [Ala^10]; cited from earlier work.

Ends that are not written are not given here. * marks the point of attachment. Biotin = O=C1N[C@H]2[C@H](CS[C@H]2CCCCC(=O)*)N1

T1 sequence (P02701 25-152): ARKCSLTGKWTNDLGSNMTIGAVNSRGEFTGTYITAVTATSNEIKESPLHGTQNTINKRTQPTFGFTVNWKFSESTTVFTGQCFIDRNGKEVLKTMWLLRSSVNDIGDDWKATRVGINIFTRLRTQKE

“tripod: substance P analog (SEQ ID No. 2) labeled with fluorescein; biotin for attachment to neutravidin support (GATCTGCTGGCATCT; fluorescein label and biotin, positions not given here)”: the “concentration of tripod up to which fluorescence increases proportionally, then plateau (saturation of the neutravidin binding sites)” value with neutravidin came out at 0.17 µM.

Take “KSSK(Biotin)RPAPQQFFGAM-NH2 [substance P analog]”: the “cross reactivity with substance P for the monoclonal antibody SP31” value in the series with monoclonal antibody SP31 is reported as 13%.
